Assay results as given in patent US10308916B2, “Omega-transaminase mutants with activity improvements toward ketones and methods for producing optically pure amines” (Industry-Academic Cooperation Foundation, Yonsei University, priority 2015, dated 2019).
Where “and” joins values, the source holds several entries; their conditions need not be identical. Identical values can stand only once. Like-named read-outs stand apart in the source and are kept apart here.

Assays:
Format in all cases: biochemical
[1] = tested on: OATA W58A
[2] = tested on: OATA L57Q/W58N/I261L
[3] = tested on: OATA W58D/I261A
[4] = tested on: OATA W58L
[5] = tested on: OATA L57C/W58L/I261A
[6] = tested on: OATA W58L; remark: listed apart in the source
[7] = tested on: OATA W58D/I261A; remark: listed apart in the source
[8] = tested on: OATA L57C/W58L/I261A; remark: listed apart in the source
[9] = tested on: OATA W58L; settings: pH 7
[10] = tested on: OATA W58A, OATA W58M, OATA W58V and OATA W58I mutants
[11] = tested on: OATA W58A; settings: pH 7
[12] = tested on: W58A mutant
[13] = tested on: OATA L57A/W58A
[14] = tested on: OATA W58M; settings: pH 7
[15] = tested on: OATA L57Q/W58N/I261L; remark: listed apart in the source
[16] = tested on: OATA L57A/W58A/V154A
[17] = tested on: OATA W58I; settings: pH 7
[18] = tested on: OATA L57A
[19] = tested on: OATA W58V; settings: pH 7
[20] = tested on: OATA W58A; remark: listed apart in the source
[21] = tested on: OATA W58L; remark: listed apart in the source
[22] = tested on: OATA W58L; remark: listed apart in the source
[23] = tested on: OATA L57A; remark: listed apart in the source
[24] = tested on: OATA L57A/W58A/V154A; remark: listed apart in the source
[25] = tested on: OATA L57A/W58A; remark: listed apart in the source

Structure (SMILES): NCc1ccccc1 [Benzylamine]
- Relative reactivity, OATA W58A [1]: 50%
- Relative activity, OATA L57Q/W58N/I261L [2]: 123%
- Relative activity, OATA W58D/I261A [3]: 17%
- Relative reactivity, OATA W58L [4]: 49%
- Relative activity, OATA L57C/W58L/I261A [5]: 792%

Structure (SMILES): CC(C)N [Isopropylamine]
- Fold-increase in kcat/KM [6]: 8.6
- fold decrease in KM (tighter binding) [6]: 8.9
- Relative reactivity, OATA W58A [1]: 28%
- Relative activity, OATA L57Q/W58N/I261L [2]: 23%
- Relative reactivity, OATA W58L [4]: 72%
- Relative activity, OATA L57C/W58L/I261A [5]: 8%

Structure (SMILES): CC(=O)c1ccccc1 [Ketone 1a, acetophenone]
- Relative activity, OATA W58D/I261A [7]: 648%
- Relative activity, OATA L57C/W58L/I261A [8]: 12,174%
- Relative activity to acetophenone, OATA W58L [9]: 100%
- Fold-increase in kcat/KM [6]: 340
- fold decrease in KM (tighter binding) [6]: 6.1
- fold increase in turnover number (kcat) [6]: 55.7
- kcat relative to kcat of the wild-type enzyme for pyruvate [6]: up to 20%
- fold increase in reactivity as compared to OATA WT [10]: more than 40
- Relative activity to acetophenone, OATA W58A [11]: 100%
- fold increase in activity [12]: 41
- Relative activity, OATA L57A/W58A [13]: 716%
- Relative activity to acetophenone, OATA W58M [14]: 100%
- Relative activity, OATA L57Q/W58N/I261L [15]: 2,500%
- Relative activity, OATA L57A/W58A/V154A [16]: 637%
- Relative activity to acetophenone, OATA W58I [17]: 100%
- Relative activity, OATA L57A [18]: 89%
- Relative activity to acetophenone, OATA W58V [19]: 100%
- Relative activity, OATA W58A [20]: 1,206%^

Structure (SMILES): CCCC(=O)c1ccccc1 [Ketone 1c, butyrophenone]
- Relative activity to acetophenone, OATA W58L [9]: >0.1%^
- Relative activity to acetophenone, OATA W58A [11]: 8%
- Relative activity, OATA L57A/W58A [13]: 302%
- fold increase in amination activity compared to OATA W58A [13]: > 30 and 38
- Relative activity to acetophenone, OATA W58M [14]: 15%
- Relative activity, OATA L57A/W58A/V154A [16]: 747%
- Relative activity to acetophenone, OATA W58I [17]: 11%
- Relative activity, OATA L57A [18]: 1%
- Relative activity to acetophenone, OATA W58V [19]: 12%
- Relative activity, OATA W58A [20]: 8%

Structure (SMILES): CC(=O)CCc1ccccc1 [Ketone 1f, benzylacetone]
- Relative activity, OATA L57C/W58L/I261A [8]: 6,330%
- Relative activity to acetophenone, OATA W58L [9]: 277%
- Conversion (%) OATAW58L [21]: 93%
- Conversion, preparative scale [21]: 92%
- Relative activity to acetophenone, OATA W58A [11]: 219%
- Relative activity to acetophenone, OATA W58M [14]: 178%
- Relative activity to acetophenone, OATA W58I [17]: 125%
- Relative activity, OATA L57A [18]: 439%
- Relative activity to acetophenone, OATA W58V [19]: 193%

Structure (SMILES): O=C1CCc2ccccc21 [Ketone 1g, 1-indanone]
- Relative activity, OATA L57C/W58L/I261A [8]: 609%
- Relative activity to acetophenone, OATA W58L [9]: 2%
- Relative activity to acetophenone, OATA W58A [11]: 15%
- Relative activity to acetophenone, OATA W58M [14]: 20%
- Relative activity to acetophenone, OATA W58I [17]: 16%
- Relative activity, OATA L57A [18]: 0.6%
- Relative activity to acetophenone, OATA W58V [19]: 17%

Structure (SMILES): O=C1CCc2ccccc21 [Ketone 1g]
- Fold-increase [22]: >760

Structure (SMILES): O=C1CCCc2ccccc21 [Ketone 1h]
- Fold-increase [22]: >210

Structure (SMILES): CC(=O)C(=O)O [pyruvate, pyruvic acid]
- Fold-increase in kcat/KM [6]: 0.41
- decrease in specificity constant (kcat/KM) [6]: 60%
- fold increase in turnover number (kcat) [6]: 7.1
- weaker binding, fold decrease in KM as printed [6]: 17.5
- Relative activity, OATA L57A [23]: 77%
- Relative activity, OATA L57A/W58A/V154A [24]: 1,190%
- Relative activity, OATA L57A/W58A [25]: 707%
